Measurements as given in patent publication US20050176826A1, “Use of asc-1 inhibitors to treat neurological and psychiatric disorders” (H. Lundbeck A/S, priority 2002, published 2005).

Key:
[1] = target: T1, human asc-1 (Homo sapiens, UniProt Q9NS82); assay: [3H]D-serine uptake into HEK293 cells expressing human asc-1; format: cell-based
T1 construct: expressed in transfected cells; host or cells: HEK293 (ATCC CRL 1573), transient, vector pCI/neo
T1 sequence (Q9NS82 1-523): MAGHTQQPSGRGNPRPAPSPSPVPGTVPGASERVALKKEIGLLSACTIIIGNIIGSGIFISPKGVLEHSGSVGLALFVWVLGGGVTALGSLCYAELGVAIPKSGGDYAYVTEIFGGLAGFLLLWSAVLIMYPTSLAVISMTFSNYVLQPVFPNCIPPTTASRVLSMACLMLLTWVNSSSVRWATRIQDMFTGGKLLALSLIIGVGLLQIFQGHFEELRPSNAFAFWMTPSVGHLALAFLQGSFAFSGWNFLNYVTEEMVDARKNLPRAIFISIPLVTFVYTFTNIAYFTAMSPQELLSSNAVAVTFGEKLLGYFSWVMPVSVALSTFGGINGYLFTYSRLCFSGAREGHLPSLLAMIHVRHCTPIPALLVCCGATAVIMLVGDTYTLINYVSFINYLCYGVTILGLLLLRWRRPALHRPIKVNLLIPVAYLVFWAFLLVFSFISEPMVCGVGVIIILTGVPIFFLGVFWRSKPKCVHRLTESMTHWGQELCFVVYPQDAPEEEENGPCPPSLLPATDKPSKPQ
Method: Uptake was determined 2-4 days after the transfection.
Into cortical membranes: Cortex from male Wistar rats (150-200 g) was homogenized in 0.40 M sucrose and centrifuged at 1000×g for 10 min. […] Test compounds and tissue (1 mg orig. tissue/well) were added to 96 well plates and incubated with [^3H]-D-serine (specific activity=26.8 Ci/mmol, PerkinElmer, Cambridge, U.K.) (100 nM final concentration) for 5 min at 25° C. Samples were filtered on Unifilter GF/B glass fiber (Packard Biosciences, Meriden, Conn., USA) and washed with 3×0.25 mL assay buffer. Measurements of [^3H]-D-serine uptake into whole HEK293 cells expressing human asc-1 were performed in 96 well plates with similar conditions except that the cells were incubated for 15 min with radioligand and washed by dipping twice in cold assay buffer following incubation with radioligand. Accumulated radioactivity was extracted from the cells by adding 200 μL scintillation fluid/well (Ultima Gold, Packard Biosciences) and the plates were counted in a Microplates Scintillation Counter (Packard Biosciences). The D-serine uptake in samples containing test compounds was compared to controls without added compound or controls where transport via the asc-1 was inhibited by addition of e.g. 30 mM L-alanine.

[2] = test system: System A transporters; assay: [3H]AIB transport into cultured rat hepatocytes (Bracy et al.); format: cell-based; details: corresponding to 81% inhibition at 5 mM

In the case of `CSCC(N)C(=O)O` (stereo in doubt) [(S)-methyl-L-cysteine], the Ki [1] is reported as 62 ± 15 µM and the IC50 [2] is reported as about 1200 µM.
